Experimental data from patent publication US8367606B2, “Method and compositions for prevention and treatment of diabetic and aged skin” (HealOr Ltd., priority 2005, dated 2013).

Key:
[1] = test system: primary mouse keratinocytes; experiment: Filaggrin expression in differentiating keratinocytes (Western blot of cytoskeletal fraction); type: cell-based; conditions: 50, 150 and 300 nM; 0.12 mM Ca2+
Procedure: Primary mouse keratinocytes were cultured in 0.05 mM Ca^+2 MEM and differentiation was induced by elevating Ca^+2 concentrations to 0.12 mM. Keratinocytes were treated with either PBS (control) or different concentrations (50, 150 and 300 nM) of troglitazone, a PPARγ activator. The cells were lysed and the cytoskeletal fraction was subjected to SDS-PAGE and blotted with anti-filaggrin antibody.

[2] = test system: damaged skin from diabetic (STZ injected) C57BL/6J mice; experiment: Reconstruction of the hypodermis layer in damaged diabetic skin (H&E histology); type: in vivo; conditions: 7-9 days treatment; insulin 0.1 unit + peptide 1 μM, or adipsin 1 μM
Procedure: Damaged skin from diabetic (STZ injected) C57BL/6J mice was treated with either PBS (control); a mixture of insulin (0.1 unit) and the N-myristoylated PKCα pseudosubstrate peptide of SEQ ID NO: 1 (1 μM); or adipsin (1 μM) for 7-9 days. Skin biopsies were then collected and embedded in paraffin, and histological sections were performed and stained with H&E. The sections were analyzed for presence of the hypodermis layer presented as a continuous layer of adipocytes, and the percent of total animals per each group with fully reconstituted hypodermis is shown in FIGS. 11A-11B.

[3] = test system: damaged skin of diabetic (STZ injected) C57BL/6J mice; experiment: Inflammatory response in damaged skin of diabetic mice (H&E histology, abscess formation and leukocytosis); type: in vivo; conditions: adiponectin 0.1 μg/ml for 7 days; non-treated control 90%; severe = both abscess and leukocytosis
Procedure: Damaged skin of diabetic (STZ injected) C57BL/6J mice was treated with either PBS (control) or adiponectin (0.1 μg/ml) for 7 days (total n=18). Thereafter, skin biopsies were collected, embedded in paraffin, and analyzed for inflammation by H&E histological staining. Inflammation was graded by abscess formation and excessive leukocytosis in the skin and proximal blood vessels, and severe inflammation was considered when both abscess and leukocytosis were apparent.
In the next step, damaged skin from diabetic (STZ injected) C57BL/6J mice was treated with either PBS (control); a mixture of insulin (0.1 unit) and the N-myristoylated PKCα pseudosubstrate peptide of SEQ ID NO: 1 (1 μM); or Copolymer-1 (Teva Pharmaceutical Industries, Israel), (55 μg/ml) for 9 days (n=6 per each group). […] Thereafter, skin biopsies were collected, embedded in paraffin, and analyzed for inflammation by H&E histological staining. Inflammation was graded as described above.

Molecule: Cc1c(C)c2c(c(C)c1O)CCC(C)(COc1ccc(CC3SC(=O)NC3=O)cc1)O2 (stereo not drawn) [troglitazone, 5-(4-(6-hydroxy-2,5,7,8-tetramethylchroman-2-yl-methoxy)benzyl)-2,4-thiazolidinedione]
- filaggrin expression (terminal differentiation marker, FIG. 12) [1]: upregulation of filaggrin expression

Molecule: adipsin: adipokine, complement factor D secreted by adipocytes
- reconstitution of the hypodermis layer (FIGS. 11A-11B) [2]: can reconstruct the hypodermal subcutaneous layer

B1: adiponectin: adipokine, a bioactive molecule secreted by adipocytes (protein, UniProt Q15848 19-244, looked up)
Adiponectin: ETTTQGPGVLLPLPKGACTGWMAGIPGHPGHNGAPGRDGRDGTPGEKGEKGDPGLIGPKGDIGETGVPGAEGPRGFPGIQGRKGEPGEGAYVYRSAFSVGLETYVTIPNMPIRFTKIFYNQQNHYDGSTGKFHCNIPGLYYFAYHITVYMKDVKVSLFKKDKAMLFTYDQYQENNVDQASGSVLLHLEVGDQVWLQVYGEGERNGLYADNDNDSTFTGFLLYHDTN
- percent of animals exhibiting severe inflammation of the skin [3]: 20%
